# Measurements from US8106055B2, “Substituted amide compounds” (Gruenenthal GmbH, priority 2007, dated 2012).
# Target: T1, human bradykinin 1 receptor (B1R) (Homo sapiens, UniProt P46663)
# T1 construct: expressed in transfected cells; host or cells: CHO K1 cells
# T1 sequence (P46663 1-353): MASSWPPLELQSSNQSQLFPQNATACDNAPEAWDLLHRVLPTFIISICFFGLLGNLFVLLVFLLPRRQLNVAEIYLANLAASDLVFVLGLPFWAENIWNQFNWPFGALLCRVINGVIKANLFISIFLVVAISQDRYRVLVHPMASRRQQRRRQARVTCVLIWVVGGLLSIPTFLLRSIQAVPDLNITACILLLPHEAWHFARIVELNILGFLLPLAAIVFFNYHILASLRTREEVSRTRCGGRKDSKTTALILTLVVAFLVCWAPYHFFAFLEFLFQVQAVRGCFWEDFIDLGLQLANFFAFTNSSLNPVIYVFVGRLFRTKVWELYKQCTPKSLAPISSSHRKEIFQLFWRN
# Test: Functional investigation on the human bradykinin 1 receptor (B1R), Ca2+ FLIPR assay in CHO K1 hB1R cells
# Format: cell-based
# Conditions: B1R antagonism human; test substance 10 μM; Ca2+ FLIPR, CHO K1 hB1R cells
# In short: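 Cells were dye-loaded with Fluo-4 plus probenecid, then test substances added and Ca2+ influx compared with agonist control for % activation. After 10-20 min, EC80 agonist (Lys-Des-Arg9-bradykinin human; Des-Arg9-bradykinin rat) was applied; suppression gave % inhibition and IC50 values.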
row,SMILES,B1R Ant. h [10 μM] % Inhibition [%]
1,"COc1cc(C)c(S(=O)(=O)N(C)CCOCC(=O)NC2CCC(C(c3ccccc3)N(C)C)CC2)c(C)c1C (stereo not drawn) [Example 80, N-(4-((dimethylamino) (phenyl)methyl)cyclohexyl)-2-(2-(4-methoxy-N,2,3,6-tetramethylphenylsulfonamido)ethoxy)acetamide]",98

# Same assay, conditions: CHO-K1, B1R antagonism human; test substance 10 μM; Ca2+ FLIPR, CHO K1 hB1R cells; read-out: B1R Ant. h [10 μM] % Inhibition
row,SMILES,inhibition at 10 µM [%]
1,"COc1cc(C)c(S(=O)(=O)N2CCN(CCOCC(=O)NCC3CCC(C(c4ccccc4)N(C)C)CC3)CC2)c(C)c1C (stereo not drawn) [Example 61, N-((4-((dimethylamino)(phenyl)methyl)cyclohexyl)methyl)-2-(2-(4-(4-methoxy-2,3,6-trimethylphenylsulfonyl)piperazin-1-yl)ethoxy)acetamide]",63
2,"COc1ccc(S(=O)(=O)N2CCCCC2CCOCC(=O)NC2CCC(C(c3cccc(F)c3)N(C)C)CC2)cc1 (stereo not drawn) [Example 62, N-(4-((dimethylamino)(3-fluorophenyl)methyl)cyclohexyl)-2-(2-(1-(4-methoxyphenylsulfonyl)piperidin-2-yl)ethoxy)acetamide]",40
3,"Cc1cc(C)c(S(=O)(=O)N2CCC(OCC(=O)NC3CCC(C(c4ccccc4)N(C)C)CC3)C2)c(C)c1 (stereo not drawn) [Example 64, N-(4-((dimethylamino)(phenyl)methyl)cyclohexyl)-2-(1-(mesitylsulfonyl)pyrrolidin-3-yloxy)acetamide]",60
4,"CN(C)C(c1cccs1)C1CCC(CCNC(=O)COCCN(C)S(=O)(=O)c2ccc(OC(F)(F)F)cc2)CC1 (stereo not drawn) [Example 65, N-(2-(4-((dimethylamino)(thiophen-2-yl)methyl)cyclohexyl)ethyl)-2-(2-(N-methyl-4-(trifluoromethoxy)phenylsulfonamido)ethoxy)acetamide]",12
5,"CN(C)C(c1cccs1)C1CCC(CCNC(=O)COC2CCN(S(=O)(=O)c3ccc(Cl)cc3)C2)CC1 (stereo not drawn) [Example 66, 2-(1-(4-chlorophenylsulfonyl)pyrrolidin-3-yloxy)-N-(2-(4-((dimethylamino)(thiophen-2-yl)methyl)cyclohexyl)ethyl)acetamide]",-1
6,"Cc1ccc(S(=O)(=O)N2CCC(OCC(=O)NCC3CCC(C(c4cccs4)N(C)C)CC3)C2)cc1 (stereo not drawn) [Example 68, N-((4-((dimethylamino)(thiophen-2-yl)methyl)cyclohexyl)methyl)-2-(1-tosylpyrrolidin-3-yloxy)acetamide]",18
7,"COc1cc(C)c(S(=O)(=O)N(C)CCOCC(=O)NCC2CCC(C(c3cccs3)N(C)C)CC2)c(C)c1 (stereo not drawn) [Example 69, N-((4-((dimethylamino)(thiophen-2-yl)methyl)cyclohexyl)methyl)-2-(2-(4-methoxy-N,2,6-trimethylphenylsulfonamido)ethoxy)acetamide]",104
8,"CN(C)C(c1cccc(F)c1)C1CCC(CNC(=O)COCCN(C)S(=O)(=O)c2ccc(Cl)cc2Cl)CC1 (stereo not drawn) [Example 70, 2-(2-(2,4-dichloro-N-methylphenylsulfonamido)ethoxy)-N-((4-((dimethylamino)(3-fluorophenyl)methyl)cyclohexyl)methyl)acetamide]",98
9,"Cc1cc(C)c(S(=O)(=O)N2CCC(OCC(=O)NCCC3CCC(C(c4cccs4)N(C)C)CC3)C2)c(C)c1 (stereo not drawn) [Example 71, N-(2-(4-((dimethylamino)(thiophen-2-yl)methyl)cyclohexyl)ethyl)-2-(1-(mesitylsulfonyl)pyrrolidin-3-yloxy)acetamide]",84
10,"CN(C)C(c1cccc(F)c1)C1CCC(CNC(=O)COCCN(C)S(=O)(=O)c2c(Cl)cccc2Cl)CC1 (stereo not drawn) [Example 72, 2-(2-(2,6-dichloro-N-methylphenylsulfonamido)ethoxy)-N-((4-((dimethylamino)(3-fluorophenyl)methyl)cyclohexyl)methyl)acetamide]",94
11,"COc1ccc(S(=O)(=O)N(C)CCOCC(=O)NC2CCC(C(c3cccs3)N(C)C)CC2)cc1 (stereo not drawn) [Example 73, N-(4-((dimethylamino)(thiophen-2-yl)methyl)cyclohexyl)-2-(2-(4-methoxy-N-methylphenylsulfonamido)ethoxy)acetamide]",11
12,"COc1cc(C)c(S(=O)(=O)N2CCC(OCC(=O)NCCC3CCC(C(c4cccs4)N(C)C)CC3)C2)c(C)c1C (stereo not drawn) [Example 74, N-(2-(4-((dimethylamino)(thiophen-2-yl)methyl)cyclohexyl)ethyl)-2-(1-(4-methoxy-2,3,6-trimethylphenylsulfonyl)pyrrolidin-3-yloxy)acetamide]",66
13,"COc1cc(C)c(S(=O)(=O)N2CCC(CCOCC(=O)NCCC3CCC(C(c4cccs4)N(C)C)CC3)CC2)c(C)c1C (stereo not drawn) [Example 75, N-(2-(4-((dimethylamino)(thiophen-2-yl)methyl)cyclohexyl)ethyl)-2-(2-(1-(4-methoxy-2,3,6-trimethylphenylsulfonyl)piperidin-4-yl)ethoxy)acetamide]",15
14,"COc1cc(C)c(S(=O)(=O)N2CCN(CCOCC(=O)NC3CCC(C(c4cccc(F)c4)N(C)C)CC3)CC2)c(C)c1C (stereo not drawn) [Example 76, N-(4-((dimethylamino)(3-fluorophenyl)methyl)cyclohexyl)-2-(2-(4-(4-methoxy-2,3,6-trimethylphenylsulfonyl)piperazin-1-yl)ethoxy)acetamide]",52
15,"COc1ccc(S(=O)(=O)N2CCCC2COCC(=O)NCCC2CCC(C(c3cccs3)N(C)C)CC2)cc1 (stereo not drawn) [Example 77, N-(2-(4-((dimethylamino)(thiophen-2-yl)methyl)cyclohexyl)ethyl)-2-((1-(4-methoxyphenylsulfonyl)pyrrolidin-2-yl)methoxy)acetamide]",41
16,"CN(C)C(c1ccccc1)C1CCC(CNC(=O)COC2CCCCC2N(C)S(=O)(=O)c2ccc(Cl)c(Cl)c2)CC1 (stereo not drawn) [Example 78, 2-(2-(3,4-dichloro-N-methylphenylsulfonamido)cyclohexyloxy)-N-((4-((dimethylamino)(phenyl)methyl)cyclohexyl)methyl)acetamide]",51
17,"CN(C)C(c1ccccc1)C1CCC(CNC(=O)COC2CCN(S(=O)(=O)c3ccc(Cl)cc3)C2)CC1 (stereo not drawn) [Example 81, 2-(1-(4-chlorophenylsulfonyl)pyrrolidin-3-yloxy)-N-((4-((dimethylamino)(phenyl)methyl)cyclohexyl)methyl)acetamide]",-10
18,"Cc1ccc(S(=O)(=O)N(C)CCOCC(=O)NCCC2CCC(C(c3cccs3)N(C)C)CC2)cc1 (stereo not drawn) [Example 82, N-(2-(4-((dimethylamino)(thiophen-2-yl)methyl)cyclohexyl)ethyl)-2-(2-(N,4-dimethylphenylsulfonamido)ethoxy)acetamide]",-2
19,"CN(C)C(c1cccs1)C1CCC(NC(=O)COCCN(C)S(=O)(=O)c2ccc(Cl)cc2)CC1 (stereo not drawn) [Example 83, 2-(2-(4-chloro-N-methylphenylsulfonamido)ethoxy)-N-(4-((dimethylamino) (thiophen-2-yl)methyl)cyclohexyl)acetamide]",7

# Same assay, conditions: CHO-K1, read-out: B1R Ant. h [10 μM] % Inhibition
row,SMILES,inhibition at 10 µM [%]
1,"CN(C)C(c1ccccc1)C1CCC(CNC(=O)COC2CCN(S(=O)(=O)c3ccc(Cl)cc3Cl)C2)CC1 (stereo not drawn) [Example 67, 2-(1-(2,4-dichlorophenylsulfonyl)pyrrolidin-3-yloxy)-N-((4-((dimethylamino)(phenyl)methyl)cyclohexyl)methyl)acetamide]",48
